Data: US11078206B2, “Amino-fluoropiperidine derivatives as kinase inhibitor” (Daewoong Pharmaceutical Co., Ltd., priority 2017, dated 2021)

Key:
[1] = target: Recombinant purified human JAK3 (Homo sapiens (Human), UniProt P52333); assay: JAK3 kinase inhibitory activity (ADP Glo assay); details: read-out: JAK3 IC50, ATP 5 uM, 1 hour 30° C.
[2] = test system: JAK3 kinase (STAT5 phosphorylation induced by IL-2 in HT-2 cells); assay: JAK3-mediated cell assay (HT-2/IL-2 assay), STAT5 phosphorylation; assay type: cell-based; details: HT2, compound 30 minutes, IL-2 20 ng/ml 10 minutes, HTRF phospho-STAT5 (Tyr694)
Procedure: The inhibitory activities against JAK3 kinase at the cellular level were measured for the compounds prepared in the Examples through in vitro analysis of STAT5 phosphorylation induced by IL-2 stimulation in HT-2 cells. Specifically, STAT5 phosphorylation was analyzed using HTRF®phospho-STAT5 (Tyr694) assay kit (Cisbio, 64AT5PEG), which was purchased from Cisbio. HT-2 cells were cultured for 2 hours in growth factor-free medium. The cultured HT-2 cells were dispensed into 96-well plates by 50 ul so as to be a density of 2.5×10^5 cells/well. The compounds prepared in the previous Examples were prepared so as to be finally a 0.3% DMSO aqueous solution, and HT-2 cells was treated with the compounds for 30 minutes. After the compound treatment, IL-2 was prepared so as to be finally a concentration of 20 ng/ml, and HT-2 cells was treated for 10 minutes. The cells were then disrupted by treating lysis buffers for 30 minutes. The level of STAT5 phosphorylation was measured according to the instructions of HTRF® phospho-STAT5 assay kit, and the inhibitory activity of the compounds according to the invention was calculated. For the analysis of the results of each compound, Microsoft Excel was used, and IC50 values were calculated by SigmaPlot software.

[3] = target: Recombinant purified human BTK (Homo sapiens (Human), UniProt Q06187); assay: BTK kinase inhibitory activity (ADP Glo assay); details: read-out: BTK IC50, ATP 10 uM, 1 hour 30° C.
Chain of Recombinant purified human BTK (Q06187 whole entry): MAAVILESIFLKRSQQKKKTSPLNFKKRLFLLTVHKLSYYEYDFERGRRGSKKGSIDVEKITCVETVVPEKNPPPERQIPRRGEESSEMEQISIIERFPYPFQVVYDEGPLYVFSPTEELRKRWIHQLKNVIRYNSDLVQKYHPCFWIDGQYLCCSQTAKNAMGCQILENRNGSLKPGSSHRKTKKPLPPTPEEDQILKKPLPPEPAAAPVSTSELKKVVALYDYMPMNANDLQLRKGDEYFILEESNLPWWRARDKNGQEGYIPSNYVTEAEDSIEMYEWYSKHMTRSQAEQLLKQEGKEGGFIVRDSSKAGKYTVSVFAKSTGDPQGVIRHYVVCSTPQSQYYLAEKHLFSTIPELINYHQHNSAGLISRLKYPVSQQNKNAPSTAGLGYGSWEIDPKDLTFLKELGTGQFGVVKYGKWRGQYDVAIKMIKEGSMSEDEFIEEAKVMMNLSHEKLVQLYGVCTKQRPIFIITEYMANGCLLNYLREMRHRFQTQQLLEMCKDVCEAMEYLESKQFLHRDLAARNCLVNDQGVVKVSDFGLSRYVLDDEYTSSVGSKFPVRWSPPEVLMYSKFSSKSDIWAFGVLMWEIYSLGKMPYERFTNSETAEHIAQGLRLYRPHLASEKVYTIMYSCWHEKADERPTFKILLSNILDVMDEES

Chain of Recombinant purified human JAK3 (P52333 whole entry): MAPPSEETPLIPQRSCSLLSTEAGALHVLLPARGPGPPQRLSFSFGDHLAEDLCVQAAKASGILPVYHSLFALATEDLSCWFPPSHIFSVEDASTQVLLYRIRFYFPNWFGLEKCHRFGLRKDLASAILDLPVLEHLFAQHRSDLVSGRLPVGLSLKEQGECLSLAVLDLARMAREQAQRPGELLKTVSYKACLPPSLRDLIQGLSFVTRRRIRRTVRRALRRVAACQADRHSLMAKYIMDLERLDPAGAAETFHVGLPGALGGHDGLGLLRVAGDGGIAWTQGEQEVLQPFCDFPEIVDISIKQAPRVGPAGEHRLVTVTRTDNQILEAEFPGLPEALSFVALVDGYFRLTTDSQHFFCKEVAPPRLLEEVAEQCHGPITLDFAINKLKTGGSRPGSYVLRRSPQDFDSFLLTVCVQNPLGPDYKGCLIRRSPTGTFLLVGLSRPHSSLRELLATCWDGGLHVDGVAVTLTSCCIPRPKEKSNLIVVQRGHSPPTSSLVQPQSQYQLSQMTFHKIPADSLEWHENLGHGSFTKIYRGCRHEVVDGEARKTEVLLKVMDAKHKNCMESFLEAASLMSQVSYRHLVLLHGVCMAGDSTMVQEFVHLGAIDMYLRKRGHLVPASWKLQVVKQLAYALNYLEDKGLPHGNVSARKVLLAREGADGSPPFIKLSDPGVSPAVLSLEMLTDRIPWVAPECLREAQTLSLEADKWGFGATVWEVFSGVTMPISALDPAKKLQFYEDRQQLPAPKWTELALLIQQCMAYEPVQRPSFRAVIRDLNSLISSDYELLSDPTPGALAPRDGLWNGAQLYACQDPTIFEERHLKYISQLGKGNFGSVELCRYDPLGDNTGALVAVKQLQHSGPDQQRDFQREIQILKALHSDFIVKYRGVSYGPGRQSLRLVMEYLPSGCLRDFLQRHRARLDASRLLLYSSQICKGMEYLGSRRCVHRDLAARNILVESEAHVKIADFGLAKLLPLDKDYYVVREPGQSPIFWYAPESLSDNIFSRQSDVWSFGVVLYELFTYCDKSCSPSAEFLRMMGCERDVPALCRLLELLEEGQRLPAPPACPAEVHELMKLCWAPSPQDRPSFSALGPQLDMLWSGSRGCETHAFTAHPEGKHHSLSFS

C=CC(=O)N1CC[C@@H](F)[C@@H](Nc2nc(Nc3cnn(CC)c3)nc3[nH]cc(Cl)c23)C1 [Example 1, 1-((3S,4R)-3-(5-chloro-2-(1-ethyl-1H-pyrazol-4-ylamino)-7H-pyrrolo[2,3-d]pyrimidin-4-ylamino)-4-fluoropiperidin-1-yl)prop-2-en-1-one]
IC50 [1]: 0.1 nM
IC50 [2]: 30.9 nM
IC50 [3]: 0.6 nM

C=CC(=O)N1CC[C@@H](F)[C@@H](Nc2nc(Nc3cnn(CC(F)F)c3)nc3[nH]cc(Cl)c23)C1 [Example 2, 1-((3S,4R)-3-(5-chloro-2-(1-(2,2-difluoroethyl)-1H-pyrazol-4-ylamino)-7H-pyrrolo[2,3-d]pyrimidin-4-ylamino)-4-fluoropiperidin-1-yl)prop-2-en-1-one]
IC50 [1]: 0.1 nM
IC50 [2]: 49 nM
IC50 [3]: 0.8 nM

C=CC(=O)N1CC[C@@H](F)[C@@H](Nc2nc(Nc3cnn(C4CC4)c3)nc3[nH]cc(Cl)c23)C1 [Example 3, 1-((3S,4R)-3-(5-chloro-2-(1-cyclopropyl-1H-pyrazol-4-ylamino)-7H-pyrrolo[2,3-d]pyrimidin-4-ylamino)-4-fluoropiperidin-1-yl)prop-2-en-1-one]
IC50 [1]: 0.1 nM
IC50 [3]: 0.8 nM

C=CC(=O)N1CC[C@@H](F)[C@@H](Nc2nc(Nc3cnoc3)nc3[nH]cc(Cl)c23)C1 [Example 4, 1-((3S,4R)-3-(5-chloro-2-(isoxazol-4-ylamino)-7H-pyrrolo[2,3-d]pyrimidin-4-ylamino)-4-fluoropiperidin-1-yl)prop-2-en-1-one]
IC50 [1]: 0.2 nM
IC50 [2]: 51.8 nM
IC50 [3]: 3.2 nM

C=CC(=O)N1CC[C@@H](F)[C@@H](Nc2nc(Nc3cnsc3)nc3[nH]cc(Cl)c23)C1 [Example 5, 1-((3S,4R)-3-(5-chloro-2-(isothiazol-4-ylamino)-7H-pyrrolo[2,3-d]pyrimidin-4-ylamino)-4-fluoropiperidin-1-yl)prop-2-en-1-one]
IC50 [1]: 0.6 nM
IC50 [2]: 288 nM
IC50 [3]: 3.9 nM

C=CC(=O)N1CC[C@@H](F)[C@@H](Nc2nc(Nc3cnn(CC)c3)nc3[nH]cc(C#N)c23)C1 [Example 6, 4-((3S,4R)-1-acryloyl-4-fluoropiperidin-3-ylamino)-2-(1-ethyl-1H-pyrazol-4-ylamino)-7H-pyrrolo[2,3-d]pyrimidine-5-carbonitrile]
IC50 [1]: 0.2 nM
IC50 [3]: 0.9 nM

C=CC(=O)N1CC[C@@H](F)[C@@H](Nc2nc(Nc3cnn(CC(F)F)c3)nc3[nH]cc(C#N)c23)C1 [Example 7, 4-((3S,4R)-1-acryloyl-4-fluoropiperidin-3-ylamino)-2-(1-(2,2-difluoroethyl)-1H-pyrazol-4-ylamino)-7H-pyrrolo[2,3-d]pyrimidine-5-carbonitrle]
IC50 [1]: 0.2 nM
IC50 [3]: 0.8 nM

C=CC(=O)N1CC[C@@H](F)[C@@H](Nc2nc(Nc3cnn(C4CC4)c3)nc3[nH]cc(C#N)c23)C1 [Example 8, 4-((3S,4R)-1-acryloyl-4-fluoropiperidin-3-ylamino)-2-(1-cyclopropyl-1H-pyrazol-4-ylamino)-7H-pyrrolo[2,3-d]pyrimidine-5-carbonitrle]
IC50 [1]: 0.3 nM
IC50 [3]: 0.9 nM

C=CC(=O)N1CC[C@@H](F)[C@@H](Nc2nc(Nc3cnoc3)nc3[nH]cc(C#N)c23)C1 [Example 9, 4-((3S,4R)-1-acryloyl-4-fluoropiperidin-3-ylamino)-2-(isoxazol-4-ylamino)-7H-pyrrolo[2,3-d]pyrimidine-5-carbonitrle]
IC50 [1]: 0.3 nM
IC50 [2]: 282 nM
IC50 [3]: 2.2 nM

C=CC(=O)N1CC[C@@H](F)[C@@H](Nc2nc(Nc3cnn(CC)c3)nc3[nH]cc(C)c23)C1 [Example 10, 1-((3S,4R)-3-(2-(1-ethyl-1H-pyrazol-4-ylamino)-5-methyl-7H-pyrrolo[2,3-d]pyrimidin-4-ylamino)-4-fluoropiperidin-1-yl)prop-2-en-1-one]
IC50 [1]: 0.5 nM
IC50 [2]: 242 nM
IC50 [3]: 3.3 nM

C=CC(=O)N1CC[C@@H](F)[C@@H](Nc2nc(Nc3cnoc3)nc3[nH]cc(C)c23)C1 [Example 11, 1-((3S,4R)-4-fluoro-3-(2-(isoxazol-4-ylamino)-5-methyl-7H-pyrrolo[2,3-d]pyrimidin-4-ylamino)piperidin-1-yl)prop-2-en-1-one]
IC50 [1]: 0.7 nM
IC50 [2]: 248 nM
IC50 [3]: 9.1 nM

C=CC(=O)N1CC[C@H](F)[C@@H](Nc2nc(Nc3cnn(CC)c3)nc3[nH]cc(Cl)c23)C1 [Example 12, 1-((3S,4S)-3-(5-chloro-2-(1-ethyl-1H-pyrazol-4-ylamino)-7H-pyrrolo[2,3-d]pyrimidin-4-ylamino)-4-fluoropiperidin-1-yl)prop-2-en-1-one]
IC50 [1]: 0.2 nM
IC50 [2]: 25.4 nM
IC50 [3]: 1 nM
